Data: PubChem BioAssay (NCI)
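Five concentrations, 48 hours, 96-well plates. At the TGI there is no net growth.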

Assays:
Test in all cases: NCI anticancer screen, dose series, 48 h
SN12C renal = tested on: SN12C renal
CCRF-CEM leukemia = tested on: CCRF-CEM leukemia
OVCAR-5 ovarian = tested on: OVCAR-5 ovarian
UACC-62 melanoma = tested on: UACC-62 melanoma
MDA-MB-435 = tested on: MDA-MB-435
SK-MEL-28 melanoma = tested on: SK-MEL-28 melanoma
SF-539 CNS = tested on: SF-539 CNS
K-562 leukemia = tested on: K-562 leukemia
UACC-257 melanoma = tested on: UACC-257 melanoma
LOX IMVI melanoma = tested on: LOX IMVI melanoma
A498 renal = tested on: A498 renal
CAKI-1 renal = tested on: CAKI-1 renal

SMILES | TGI (SN12C renal) | TGI (CCRF-CEM leukemia) | TGI (OVCAR-5 ovarian) | TGI (UACC-62 melanoma) | TGI (MDA-MB-435) | TGI (SK-MEL-28 melanoma) | TGI (SF-539 CNS) | TGI (K-562 leukemia) | TGI (UACC-257 melanoma) | TGI (LOX IMVI melanoma) | TGI (A498 renal) | TGI (CAKI-1 renal)
Cc1c(-c2ccccc2)c(C#N)c2nnn(C)c(=O)n12 | > 100 µM | > 100 µM | > 100 µM | > 100 µM | > 100 µM | > 100 µM | > 100 µM | > 100 µM | > 100 µM | > 100 µM | > 100 µM | > 100 µM
O=C(/C=C/c1ccccc1Br)c1ccccc1 | 21.7 µM | 3.85 µM | 34.2 µM | 23.6 µM | 6.57 µM | 15.8 µM | 15.6 µM | 5.14 µM | 24.1 µM | 2.64 µM | 11.1 µM | 8.37 µM
Cc1ccc(S(=O)(=O)OI(O)CC(F)(F)F)cc1 | > 100 µM | > 100 µM | > 100 µM | > 100 µM | > 100 µM | > 100 µM | > 100 µM | > 100 µM | > 100 µM | > 100 µM | > 100 µM | > 100 µM
O=C1O/C(=C(/Cl)c2c3ccccc3cc3ccccc23)c2ccccc21 | > 100 µM | 59.1 µM | > 100 µM | > 100 µM | 58 µM | > 100 µM | 47.8 µM | > 100 µM | > 100 µM | 8.04 µM | 80.2 µM | > 100 µM
CC1=NN(C(=O)CC(=O)Nc2ccc(Cl)cc2)C(=O)C1N=Nc1ccc(S(=O)(=O)c2ccc(N=NC3C(=O)N(C(=O)CC(=O)Nc4ccc(Cl)cc4)N=C3C)cc2)cc1 (stereo not drawn) | > 100 µM | > 100 µM | > 100 µM | > 100 µM | > 100 µM | > 100 µM | > 100 µM | > 100 µM | > 100 µM | > 100 µM | > 100 µM | > 100 µM
COC(=O)C1Cc2c([nH]c3ccccc23)-c2[nH]c3ccccc3c2CC(NC(C)=O)C(=O)NCC(=O)NCC(=O)N1 (stereo not drawn) | > 100 µM | > 100 µM | > 100 µM | > 100 µM | > 100 µM | > 100 µM | > 100 µM | > 100 µM | > 100 µM | > 100 µM | > 100 µM | > 100 µM
N/N=C(/CC(O)(C(F)(F)F)C(F)(F)F)c1ccccc1 | > 10 µM | > 10 µM | > 10 µM | > 10 µM | > 10 µM | > 10 µM | > 10 µM | > 10 µM | > 10 µM | > 10 µM | > 10 µM | > 10 µM
COC(=O)/C=C/C(=O)Nc1cc(Cl)c(Cl)cc1CC(=O)N(C)[C@H]1CCCC[C@@H]1N1CCCC1 | 25.1 µM | > 100 µM | 32 µM | 28.4 µM | > 39.3 µM | 33.7 µM | 13.3 µM | > 33.5 µM | 13 µM | 24.4 µM | 28.9 µM | 38.2 µM
O=S1(=O)c2ccccc2-c2nccc3ccnc1c23 | 94.1 µM | > 100 µM | > 100 µM | 31.7 µM | > 100 µM | > 100 µM | > 100 µM | > 100 µM | > 100 µM | > 100 µM | 84.4 µM | 85.9 µM
